{
  "source": "patent EP0314302A2",
  "about": "“Herbicidal o-carbomethoxy-sulfonylureas” (E.I. DU PONT DE NEMOURS AND COMPANY, priority 1987, dated 1989)",
  "key": {"Wild buckwheat": {"tested_on": "Wild buckwheat", "experiment": "Test 10 postemergence safety to crops and weed control", "assay_type": "in vivo, Polygonum convolvulus", "conditions": "16 g/ha, scale 0-100", "method": "(§1) The object of these tests was to evaluate the compound of this invention for postemergence safety to crops and weed control. Seedling and budded Macedine grapes were grown in 11.4-cm pots. Flax, green foxtail (Setaria viridis), \"Morex\" barley, wild oats (Avena fatua), \"Era\" wheat, annual ryegrass (Lolium multiflorum), wild radish (Raphanus raphanistrum), rape, sunflower, chickweed (Stellaria media) and wild buckwheat (Polygonum convolvulus) were seeded in windowsill pots.\n(§2) The plants were sprayed postemergence with Compound I in a non-phytotoxic solvent. Plants were visually rated 15 and 27 days after treatment (DAT). Injury and weed control ratings were based on the scale of 0 to 100 where 0 = no effect, 20 minimal control and 100 = complete control."}, "Chickweed": {"tested_on": "Chickweed", "experiment": "Test 10 postemergence safety to crops and weed control", "assay_type": "in vivo, Stellaria media", "conditions": "16 g/ha, scale 0-100", "method": "as §1, §2"}, "Sowthistle": {"tested_on": "Sowthistle", "experiment": "Test 7 postemergence", "assay_type": "in vivo, Sonchus spp", "conditions": "scale 0-100", "method": "(§3) Individual 11.4-cm plastic pots filled with planting medium were seeded with rape, wild radish (Raphanus raphanistruna). tansy mustard (Descurainia pinnata), ball mustard (Neslia paniculata), black mustard (Brassica nigra), yellow mustard, brown mustard, lentils, safflower, flax, sunflower, peanut, vetch, alfalfa, field bean, pea, violet (Viola spp), Kochia (Kochia spp), Russian thistle (Salsola spp), Matricaria spp, groundsel (Senecio spp), shepherdspurse (Capsella bursa-pastoris), nightshade (Solanum spp), sowthistle (Sonchus spp), sugar beet, wheat, \"Bonanza\" barley and \"Morex\" barley, Kentucky bluegrass (Poa pratensis), red clover (Trifolium pratense), dandelion (Taraxacum spp) and buckhorn plantain (Plantago lanceolata).\n(§4) Plants were treated postemergence with the compound formulated with a non-phytotoxic carrier. Plants were visually rated 18 days after treatment (DAT). Response ratings were based on the scale of 0 to 100 where 0 = no effect, 20 = minimal injury and 100 = complete control."}, "Itchgrass": {"tested_on": "Itchgrass", "experiment": "Test 11 windowsill flats, postemergence", "assay_type": "in vivo, Rottboellia exaltata", "conditions": "Postemergence 32 g/ha, 0.25% X-77 surfactant, scale 0-100", "method": "(§5) Budded citrus seedlings were planted in 30-liter plastic pots which were also seeded with sandbur, guineagrass, narrowleaf panicum, common ragweed, yellow nutsedge, purple nutsedge and bindweed. Compound I was applied preemergence and postemergence to the weeds. Treatments were sprayed to simulate the trunk-to-trunk herbicide application method used in some citrus groves. The compound was also applied postemergence to weeds grown in windowsill flats. The flats were filled with planting medium and seeded with morningglory (Ipomoea spp.). purple nutsedge (Cyperus rotundus), pigweed (Amaranthus spp.), bindweed (Convolvulus spp.), narrowleaf panicum (Panicum maximum), common ragweed (Ambrosia artemisiifolia), sandbur (Cenchrus echinatus), itchgrass (Rottboellia exaltata), johnsongrass (Sorghum halepense), guineagrass (Panicum maximum), smooth crabgrass (Digitaria ischaemum), broadleaf signalgrass (Brachiaria platyphylla), bermudagrass (Cynodon dactylon), goosegrass (Eleusine indica), large crabgrass (Digitaria sanguinalis) and yellow nutsedge (Cyperus esculentus).\n(§6) The compound was formulated and sprayed with 0.25% X-77 surfactant in water. Plants were visually rated 21 and 29 days after treatment and compared with appropriate controls. Injury ratings were based on the scale of 0 to 100, where 0 indicates no effect, 20 indicates minimum effect and 100 indicates complete control. […]"}, "Elephantgrass": {"tested_on": "Elephantgrass", "experiment": "Test 9 postemergence", "assay_type": "in vivo, Pennisetum purpureum", "conditions": "scale 0-100", "method": "(§7) Plastic windowsill pots containing planting medium were seeded with bahiagrass, bindweed (Convolvulus spp), guinea grass (Panicum maximum), large crabgrass (Digitaria sanguinalis) and pigweed (Amaranthus spp). Individual 15-cm plastic pots contained sandbur (Cenchrus echinatus), Mikania cordata, Boston fern (Nephrolepis exalata), quackgrass (Agropyron repens), elephantgrass (Pennisetum purpureum) and sowthistle (Sonchus spp) plants.\n(§8) Plants were treated postemergence with Compound I formulated in a non-phytotoxic solvent. Plants were visually rated 22 days after treatment (DAT). Injury and weed control ratings were based on the scale of 0 to 100 where 0 = no effect, 20 = minimal control and 100 = complete control."}, "Sandbur": {"tested_on": "Sandbur", "experiment": "Test 9 postemergence", "assay_type": "in vivo, Cenchrus echinatus", "conditions": "scale 0-100", "method": "as §7, §8"}, "Common ragweed": {"tested_on": "Common ragweed", "experiment": "Test 11 citrus pots, preemergence to the weeds", "assay_type": "in vivo, Ambrosia artemisiifolia", "conditions": "Preemergence 32 g/ha; 0.25% X-77 surfactant; scale 0-100", "method": "as §5, §6"}, "Sheperdspurse": {"tested_on": "Sheperdspurse", "experiment": "Test 7 postemergence", "assay_type": "in vivo, Capsella bursa-pastoris", "conditions": "scale 0-100", "method": "as §3, §4"}, "Mikanis cordata": {"tested_on": "Mikanis cordata", "experiment": "Test 9 postemergence", "assay_type": "in vivo, Mikania cordata", "conditions": "scale 0-100", "method": "as §7, §8"}, "Sugarcane": {"tested_on": "Sugarcane", "experiment": "Test 9 postemergence", "assay_type": "in vivo", "conditions": "scale 0-100"}, "Citrus [1]": {"tested_on": "Citrus", "experiment": "Test 11 citrus pots, preemergence to the weeds", "assay_type": "in vivo", "conditions": "Preemergence 32 g/ha; 0.25% X-77 surfactant; scale 0-100", "method": "as §5, §6"}, "Crabgrass": {"tested_on": "Crabgrass", "experiment": "Test 3 postemergence weed control", "assay_type": "in vivo, Digitaria spp", "conditions": "scale 0-100", "method": "Seeds of crabgrass (Digitaria spp), guinea grass (Panicum maximum) and narrowleaf panicum (P. maximum) were planted in 15-cm plastic pots. The weeds were treated postemergence with compound I, formulated in a non-phytotoxic solvent, when the plants had 3 or more leaves and had tillered. The degree of weed control was visually rated 17 days after compound application (DAT). Control ratings were based on a scale of 0 to 100 where 0 = no effect, 20 = minimal control and 100 = complete control."}, "Green foxtail": {"tested_on": "Green foxtail", "experiment": "Test 10 postemergence safety to crops and weed control", "assay_type": "in vivo, Setaria viridis", "conditions": "16 g/ha, scale 0-100", "method": "as §1, §2"}, "Morningglory": {"tested_on": "Morningglory", "experiment": "Test 11 windowsill flats, postemergence", "assay_type": "in vivo, Ipomoea spp.", "conditions": "Postemergence 32 g/ha, 0.25% X-77 surfactant, scale 0-100", "method": "as §5, §6"}, "Large Crabgrass [2]": {"tested_on": "Large Crabgrass", "experiment": "Test 11 windowsill flats, postemergence", "assay_type": "in vivo, Digitaria sanguinalis", "conditions": "Postemergence 32 g/ha, 0.25% X-77 surfactant, scale 0-100", "method": "as §5, §6"}, "Citrus [3]": {"tested_on": "Citrus", "experiment": "Test 11 citrus pots, postemergence to the weeds", "assay_type": "in vivo", "conditions": "Postemergence 32 g/ha, 0.25% X-77 surfactant, scale 0-100", "method": "as §5, §6"}, "Large Crabgrass [4]": {"tested_on": "Large Crabgrass", "experiment": "Test 9 postemergence", "assay_type": "in vivo, Digitaria sanguinalis", "conditions": "16 g/ha, scale 0-100", "method": "as §7, §8"}},
  "data": [
    {"smiles": "COC(=O)c1cccnc1S(=O)(=O)NC(=O)Nc1nc(OC)cc(OC)n1", "note": "[Compound I, 2-[[(4,6-dimethoxypyrimidin-2-yl)aminocarbonyl]aminosulfonyl]-3-pyridinecarboxylic acid, methyl ester]", "values": [
      {"measurement": "Plant Injury Rating 15 DAT", "setting": "Wild buckwheat", "result": 100},
      {"measurement": "Plant Injury Rating 15 DAT", "setting": "Chickweed", "result": 100},
      {"measurement": "Plant Injury Rating 18 DAT", "setting": "Sowthistle; 16 g/ha", "result": 100},
      {"measurement": "Plant Injury Rating 18 DAT", "setting": "Sowthistle; 32 g/ha", "result": 100},
      {"measurement": "Injury ratings", "setting": "Itchgrass", "result": 100},
      {"measurement": "Plant Injury Rating 22 DAT", "setting": "Elephantgrass; 8 g/ha", "result": 0},
      {"measurement": "Plant Injury Rating 22 DAT", "setting": "Elephantgrass; 16 g/ha", "result": 50},
      {"measurement": "Plant Injury Rating 22 DAT", "setting": "Elephantgrass; 32 g/ha", "result": 70},
      {"measurement": "Plant Injury Rating 22 DAT", "setting": "Sandbur; 8 g/ha", "result": 100},
      {"measurement": "Plant Injury Rating 22 DAT", "setting": "Sandbur; 16 g/ha", "result": 100},
      {"measurement": "Plant Injury Rating 22 DAT", "setting": "Sandbur; 32 g/ha", "result": 100},
      {"measurement": "Injury ratings", "setting": "Common ragweed", "result": 20},
      {"measurement": "Plant Injury Rating 18 DAT", "setting": "Sheperdspurse; 16 g/ha", "result": 100},
      {"measurement": "Plant Injury Rating 18 DAT", "setting": "Sheperdspurse; 32 g/ha", "result": 100},
      {"measurement": "Plant Injury Rating 22 DAT", "setting": "Mikanis cordata; 8 g/ha", "result": 0},
      {"measurement": "Plant Injury Rating 22 DAT", "setting": "Mikanis cordata; 16 g/ha", "result": 0},
      {"measurement": "Plant Injury Rating 22 DAT", "setting": "Mikanis cordata; 32 g/ha", "result": 30},
      {"measurement": "Plant Injury Rating 22 DAT", "setting": "Sugarcane; 8 g/ha", "result": 10},
      {"measurement": "Plant Injury Rating 22 DAT", "setting": "Sugarcane; 16 g/ha", "result": 20},
      {"measurement": "Plant Injury Rating 22 DAT", "setting": "Sugarcane; 32 g/ha", "result": 30},
      {"measurement": "Injury ratings", "setting": "Citrus [1]", "result": 0},
      {"measurement": "Control Rating 17 DAT", "setting": "Crabgrass; 8 g/ha", "result": 50},
      {"measurement": "Control Rating 17 DAT", "setting": "Crabgrass; 16 g/ha", "result": 70},
      {"measurement": "Control Rating 17 DAT", "setting": "Crabgrass; 32 g/ha", "result": 100},
      {"measurement": "Plant Injury Rating 15 DAT", "setting": "Green foxtail", "result": 100},
      {"measurement": "Injury ratings", "setting": "Morningglory", "result": 90},
      {"measurement": "Injury ratings", "setting": "Large Crabgrass [2]", "result": 80},
      {"measurement": "Injury ratings", "setting": "Citrus [3]", "result": 0},
      {"measurement": "Plant Injury Rating 22 DAT", "setting": "Large Crabgrass [4]", "result": 60}
    ]}
  ]
}
